Patent US20080081053A1, “Treatment Method” (priority 2004, published 2008)

Test system: advanced AML
Assay: Phase 2 clinical study in patients with advanced AML
Type: in vivo, human
Conditions: for %myeloblasts in bone marrow: patient with HI for neutrophils, 36% at baseline
Experimental: In a Phase 2 clinical study, 24 patients, 18 years or older, with advanced AML were treated with 12.5 mg AP23573 as a 30-minute intravenous infusion daily for 5 days every-2-weeks (QDX5, daily). The majority of patients enrolled in this trial had aggressive disease and received AP23573 study treatment as at least a 3rd line treatment regimen. Responses were assessed at the end of each cycle (4 weeks of study treatment). At the end of one cycle, two patients had Hematologic Improvement (HI), including erythroid and neutrophil minor responses. […] Six patients were stable at the end of Cycle 1 (neither response nor disease progression).
The criteria for observed responses were as follows: • a Minor Response for erythroid HI: for patients with pre-dosing hemoglobin less than 11 g/dL, […] increase in hemoglobin; for RBC transfusion-dependnt patients, 50% decrease in transfusion requirements • a Minor Response for neutrophil HI: for ANC less than 1.5×10^9 before dosing, ANC increase of at least 100%, but absolute increase less than 1.5×10^9 • Stable Disease/no response: no significant change since baseline (neither response nor progression criteria were met) • Progressive Disease: One of the following: a 50% or greater decrement from maximum response levels in graunulocytes or platelets, a reduction in hemoglobin concentration by at least 2 g/dL, or transfusion dependence

CO[C@H]1C[C@@H]2CC[C@@H](C)[C@@](O)(O2)C(=O)C(=O)N2CCCC[C@H]2C(=O)O[C@H]([C@H](C)C[C@@H]2CC[C@@H](OP(C)(C)=O)[C@H](OC)C2)CC(=O)[C@H](C)/C=C(\C)[C@@H](O)[C@@H](OC)C(=O)[C@H](C)C[C@H](C)/C=C/C=C/C=C/1C [AP23573]
patients with Hematologic Improvement (HI), including erythroid and neutrophil minor responses (24 patients with advanced AML, 12.5 mg, 30-minute i.v. infusion daily for 5 days every 2 weeks (QDX5), at the end of one cycle (4 weeks)): two | patients stable (neither response nor disease progression) (24 patients with advanced AML, end of Cycle 1, 12.5 mg i.v. QDX5): Six | %myeloblasts in bone marrow (at Cycle 2, 12.5 mg i.v. QDX5): 15% | %myeloblasts in bone marrow (end of Cycle 1, 12.5 mg i.v. QDX5): 9%
